# Test results from patent US11820804B2, “Peptide-based inhibitors of growth hormone action and methods of use thereof” (Ohio University, priority 2018, dated 2023).
# How the values were obtained:
# Assay type in all cases: cell-based
# [1] = system: hGH mediated STAT5 phosphorylation in SK-MEL-28 human melanoma cells; assay: Western blot of hGH mediated STAT5 phosphorylation in SK-MEL-28 cells; conditions: co-treated with 2.5 nM recombinant hGH, peptide at 25 and 250 nM, 20 minutes
# Experimental: (§1) Human malignant melanoma cell lines—SK-MEL-28, SK-MEL-30, human lymphoblast IM9 cells, mouse fibroblast L cells were obtained from American Type Culture Collection (ATCC; Manassas, Va.). SK-MEL-28 were grown and maintained in EMEM media (ATCC), while IM9 and L cells were grown in RPMI-1640 (ATCC) and DMEM (ATCC) respectively, as indicated by ATCC protocols. Complete growth media was supplemented with 10% fetal bovine serum (FBS; ATCC) and 1×antibiotic-antimycotic (Thermo Fisher Scientific, Waltham, Mass.). Cells were grown at 37° C./5% CO2 in a humidified incubator. Media was replaced every 48 hours. No hGH was present in the media or added externally unless specifically mentioned. For hGH treatment of adherent cells, 12-16 hours after seeding the cells were serum-starved for 4 hours in serum free growth media and hGH (or PBS as control) was added at the mentioned concentrations (50 ng/mL=2.5 nM or other concentrations). […]
# (§2) Western blotting was performed following established lab procedures. […] Membranes were then washed and treated with West Femto Chemiluminiscence® detection reagents (Thermo Fisher Scientific) and the chemiluminiscence signal was captured using a GelDoc® (Biorad) fluorescence reader. Densitometry analysis of the blots was done by measured band-intensity from the area-under-curve using ImageJ® software. […]
# [2] = system: hGH mediated STAT5 phosphorylation in IM9 human lymphoblast cells; assay: Western blot of hGH mediated STAT5 phosphorylation in IM9 cells; conditions: co-treated with 2.5 nM recombinant hGH, peptide at 25 and 250 nM, 20 minutes
# Experimental: as §1, §2
# [3] = system: hGH mediated STAT5 phosphorylation in L mouse fibroblasts cells; assay: Western blot of hGH mediated STAT5 phosphorylation in L cells; conditions: L mouse fibroblast cells, co-treated with 2.5 nM recombinant hGH, peptide at 25 and 250 nM, 20 minutes
# Experimental: as §1, §2
# [4] = system: tyrosine pSTAT5 levels following hGH stimulation; assay: tyrosine pSTAT5 levels following hGH stimulation (cells not named at the place); conditions: general statement, cell line not named
# Text: A hallmark of hGH action is rapid tyrosine phosphorylation of the STAT5(A and B) transcription factor protein following binding of hGH to hGHR and transactivation of hGHR associated JAK2. The phosphorylation event is rapid (minutes following hGH addition) and has been used as a readout of hGHR activation. Inhibitors of hGH action blocks hGH-hGHR mediated STAT5 tyrosine phosphorylation in many cells, including IM9, SK-MEL-28, mouse fibroblasts, and other cells which express hGHR.
# as §1, with “mentioned.” for “mentioned. For hGH treatment of adherent cells, 12-16 hours after seeding the cells were serum-starved for 4 hours in serum free growth media and hGH (or PBS as control) was added at the mentioned concentrations (50 ng/mL=2.5 nM or other concentrations).”
substance,measurement,setting,value
"Tyr Ile Pro Lys Glu Gln Lys Tyr Ser Phe Leu Gln Asn Pro Gln Thr (YIPKEQKYSFLQNPQT; listed as Homo sapiens) [S1H, 16-amino acid peptide mimicking hGH site 1 helix, residues 36-51]",hGH mediated STAT5 phosphorylation (pSTAT5 levels),[1],downregulates hGH mediated STAT5 phosphorylation
same,hGH mediated STAT5 phosphorylation (phospho-STAT5 levels),[2],downregulates hGH mediated STAT5 phosphorylation
same,hGH mediated STAT5 phosphorylation (phospho-STAT5 levels),[3],downregulates hGH mediated STAT5 phosphorylation
same,tyrosine pSTAT5 levels following hGH stimulation,[4],"robustly blocks tyrosine pSTAT5 levels following hGH stimulation, in a dose-dependent manner"
